Experimental data as given in US7019139B2, “Quinolinones and uses thereof” (ARIAD Pharmaceuticals, Inc., priority 2001, dated 2006).

Experiment: Hydroxyapatite assay (hydroxyapatite adsorption chromatography, bone-targeting potential)
Assay type: binding
Details: corrected K = (retention time-void time)/void on TSK-Gel HA 1000 HPLC column; linear gradient 10 mM to 500 mM sodium phosphate, 0.15 N NaCl, pH 6.8
Experimental: Hydroxyapatite is the principal mineral component of bone. Hydroxyapatite adsorption chromatography is used as an assay to evaluate the bone-targeting potential of both individual bone-targeting moieties (“monomers”) and of pharmaceuticals incorporating bone-targeting groups.
This K value is corrected using two reference compounds to correct from inter-column and inter-system variation to obtain a K′ value.
Reference Compounds: K′ values were determined for known bone targeted compounds, the bisphosphonate, alendronate and tetracycline.

NCCCC(O)(P(=O)(O)O)P(=O)(O)O [Alendronate, alendronate]
K′ value: 3.7
